Results from ChEMBL document CHEMBL3596121, “Naphthalene and 2,3-dihydrobenzo[b][1,4]dioxine derivatives with extended side chains as new scaffolds of CB2-selective ligands” (Medchemcomm, 2014).

Assays:
Cannabinoid receptor 1 [1] = target: T1, Cannabinoid receptor 1 (Homo sapiens, UniProt P21554); details: HEK293, at 10 µM
Description: Maximum displacement of human recombinant CB1 receptor expressed in HEK293 cell membranes at 10 uM incubated for 90 mins by radioligand binding assay

Cannabinoid receptor 2 [2] = target: T2, Cannabinoid receptor 2 (Homo sapiens, UniProt P34972); details: HEK293, at 10 µM
Description: Maximum displacement of human recombinant CB2 receptor expressed in HEK293 cell membranes at 10 uM incubated for 90 mins by radioligand binding assay

Cannabinoid receptor 1 [3] = target: T1, Cannabinoid receptor 1; assay: Displacement of human recombinant CB1 receptor expressed in HEK293 cell membranes incubated for 90 mins by Cheng-Prusoff equation based analysis
Cannabinoid receptor 2 [4] = target: T2, Cannabinoid receptor 2; assay: Displacement of human recombinant CB2 receptor expressed in HEK293 cell membranes incubated for 90 mins by radioligand binding assay; assay type: cell-based
HEK293 = assay: Selectivity index, ratio of Ki for human recombinant CB1 receptor expressed in HEK293 cell membranes to Ki for human recombinant CB2 receptor expressed in HEK293 cell membranes; assay type: cell-based
Cannabinoid receptor 1 [5] = target: T1, Cannabinoid receptor 1; assay: Displacement of human recombinant CB1 receptor expressed in HEK293 cell membranes incubated for 90 mins by radioligand binding assay; assay type: cell-based
Cannabinoid receptor 2 [6] = target: T2, Cannabinoid receptor 2; assay: Displacement of human recombinant CB2 receptor expressed in HEK293 cell membranes incubated for 90 mins by Cheng-Prusoff equation based analysis

T1 sequence (P21554 whole entry): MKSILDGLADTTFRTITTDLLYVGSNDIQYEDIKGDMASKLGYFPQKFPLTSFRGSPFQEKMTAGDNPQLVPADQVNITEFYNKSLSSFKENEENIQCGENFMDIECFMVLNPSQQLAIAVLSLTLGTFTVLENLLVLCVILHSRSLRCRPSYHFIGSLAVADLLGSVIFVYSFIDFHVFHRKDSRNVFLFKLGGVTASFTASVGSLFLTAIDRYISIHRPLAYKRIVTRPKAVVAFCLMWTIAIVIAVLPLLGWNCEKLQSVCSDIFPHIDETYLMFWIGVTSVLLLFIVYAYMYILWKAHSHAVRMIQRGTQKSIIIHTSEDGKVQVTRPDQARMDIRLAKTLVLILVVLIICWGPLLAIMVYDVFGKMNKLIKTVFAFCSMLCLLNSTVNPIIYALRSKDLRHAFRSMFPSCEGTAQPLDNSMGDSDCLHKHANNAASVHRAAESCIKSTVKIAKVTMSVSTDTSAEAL
T2 sequence (P34972 whole entry): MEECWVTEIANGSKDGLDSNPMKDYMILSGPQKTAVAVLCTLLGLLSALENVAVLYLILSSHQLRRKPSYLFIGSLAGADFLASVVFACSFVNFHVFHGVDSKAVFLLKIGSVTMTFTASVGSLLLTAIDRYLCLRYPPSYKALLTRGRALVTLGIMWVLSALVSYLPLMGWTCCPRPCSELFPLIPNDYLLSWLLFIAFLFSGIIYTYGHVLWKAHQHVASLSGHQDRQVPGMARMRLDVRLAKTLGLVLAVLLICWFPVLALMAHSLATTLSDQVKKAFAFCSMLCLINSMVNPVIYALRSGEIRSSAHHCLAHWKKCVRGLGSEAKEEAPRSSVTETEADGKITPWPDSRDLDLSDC

SMILES	Imax (Cannabinoid receptor 1 [1]) [%]	Imax (Cannabinoid receptor 2 [2]) [%]	Ki (Cannabinoid receptor 1 [3]) [µM]	IC50 (Cannabinoid receptor 2 [4]) [µM]	Ratio Ki (HEK293)	IC50 (Cannabinoid receptor 1 [5]) [µM]	Ki (Cannabinoid receptor 2 [6]) [µM]	log(ratioKi) (HEK293)
CCCC(C)(C)c1ccc2c(c1)OC(C)(C)[C@@H]1CC=C(C)C[C@@H]21	< 50	50	> 10	0.55	> 71.4	> 10	0.14	–
CCNC(=O)NCCCCCOc1ccc2ccccc2c1	9.27	27.1	> 10	> 10	–	> 10	> 10	–
CCNC(=O)NCCCCCOc1ccc2c(c1)OCO2	3.38	22.6	> 10	> 10	–	> 10	> 10	–
CCOC(=O)CNC(=O)/C=C/C=C/c1ccc2c(c1)-c1ccccc1C2	5.47	39.1	> 10	> 10	–	> 10	> 10	–
CCS(=O)(=O)NCCCCCSc1ccc2ccccc2c1	23.6	63.3	> 10	5.02	> 7.58	> 10	1.32	–
O=C(CCCCCOc1cccc2ccccc12)NC1CC1	24.7	27.8	> 10	> 10	–	> 10	> 10	–
O=C(/C=C/C=C/c1ccc2ccccc2c1)NC1CC1	18.5	58.5	> 10	3.02	> 12.2	> 10	0.81	–
NC(=O)NCCCCCOc1ccc2c(c1)OCO2	2.39	22.1	> 10	> 10	–	> 10	> 10	–
O=C(/C=C/C=C/c1ccc2ccccc2c1)NCCO	4.91	54.6	> 10	4.81	> 7.87	> 10	1.27	–
CCOC(=O)CNC(=O)CCCCCOc1ccc2ccccc2c1	6.46	25.5	> 10	> 10	–	> 10	> 10	–
O=C(/C=C/C=C/c1ccc2c(c1)-c1ccccc1C2)NCCO	0	24.2	> 10	> 10	–	> 10	> 10	–
CCOC(=O)CNC(=O)CCCCCOc1cccc2ccccc12	27.7	0	> 10	> 10	–	> 10	> 10	–
CCOC(=O)CNC(=O)/C=C/C=C/c1ccc2ccccc2c1	2.24	48.5	> 10	> 10	–	> 10	> 10	–
CCS(=O)(=O)NCCCCCOc1ccc2ccccc2c1	11.9	23.7	> 10	> 10	–	> 10	> 10	–
O=C(/C=C/C=C/c1ccc2c(c1)-c1ccccc1C2)NC1CC1	13.6	36.1	> 10	> 10	–	> 10	> 10	–
O=C(CCCCCOc1ccc2ccccc2c1)NC1CC1	44.8	31.4	> 10	> 10	–	> 10	> 10	–
CCS(=O)(=O)NCCCCCOc1ccc2c(c1)OCO2	3.37	29.5	> 10	> 10	–	> 10	> 10	–
O=C(CCCCCOc1ccc2ccccc2c1)NCCO	3.65	3.6	> 10	> 10	–	> 10	> 10	–
O=C(CCCCCOc1cccc2ccccc12)NCCO	27	14.8	> 10	> 10	–	> 10	> 10	–
NC(=O)NCCCCCOc1cccc2ccccc12	6.88	4.6	> 10	> 10	–	> 10	> 10	–
CCOC(=O)CNC(=O)/C=C/C=C/c1ccc2c(c1)OCCO2	4.77	55.1	> 10	9.69	> 3.9	> 10	2.56	–
CCS(=O)(=O)NCCCCCOc1cccc2ccccc12	7.86	30.9	> 10	> 10	–	> 10	> 10	–
CC1(Cc2ccccc2)COc2cc(C(=O)N3CCCCC3)ccc21 (centres undefined)	–	–	> 10	–	–	–	–	1.37
CCNC(=O)NCCCCCOc1cccc2ccccc12	18.5	23.8	> 10	> 10	–	> 10	> 10	–
CCNC(=O)NCCCCCSc1ccc2ccccc2c1	16.9	68.2	> 10	2.11	> 17.9	> 10	0.56	1.3
O=C(/C=C/C=C/c1ccc2c(c1)OCCO2)NC1CC1	6.18	26.5	> 10	> 10	–	> 10	> 10	–
